Experimental data taken from paper PMC5459446, “A phase I study of single-agent perifosine for recurrent or refractory pediatric CNS and solid tumors” (PLoS ONE, 2017).
Counter-ions that a name gives are not always drawn.

Test system: pediatric patients with recurrent or refractory CNS and solid tumors
Assay: Phase I dose-escalation toxicity assessment (Common Toxicity Criteria v3.0, DLT, MTD)
Type: in vivo
Description: This was a standard 3+3 phase I dose escalation study (NCT00776867) investigating 5 dose levels. Perifosine was only available as 50-mg tablets, complicating the phase I dose escalation scheme. A loading dose was administered on day 1 and subsequent maintenance doses were administered every 1 to 4 days, depending on dose level and BSA, with the goal of achieving dose levels of 25, 50, 75, 100, and 125 mg/m^2/day (Tables 1–5). This dosing scheme, incorporating drug administration as infrequently as every 4 days, was made possible by perifosine’s long half-life. Treatment was continued until disease progression, intolerable toxicity, DLT, or death was encountered. Subjects experiencing DLT but with evidence of clinical benefit at dose level 1, 2, or 3 were eligible to remain on study with a dose level reduction. […]
Toxicity was assessed according to the Common Toxicity Criteria (version 3.0) of the National Cancer Institute, National Institutes of Health. DLT was defined as (1) any non-hematological toxicity grade ≥ 3 [except for grade 3 nausea, vomiting, and diarrhea that could be controlled within 24 hours with supportive care measures]; (2) grade 4 neutropenia on 2 consecutive blood counts drawn at least 72 hours apart; (3) grade 4 febrile neutropenia [ANC < 1000/μL and fever ≥ 38.5°C] or grade ≥ 3 documented infection with ANC < 1000/μL, or; (4) a platelet count < 25,000/μL. Grade ≥ 3 decrease in hemoglobin that could be corrected to at least 8 g/dl (grade 2) by transfusion of red blood cells, grade ≥ 3 leukopenia in the absence of dose-limiting neutropenia, and grade ≥ 3 lymphopenia were not considered DLTs.
The DLT assessment period was the first 28-day cycle. If therapy was discontinued during the first cycle for reasons other than toxicity, an additional subject could be enrolled at that dose level to ensure adequate evaluation of toxicity. No intra-patient dose escalation was permitted.

[1] = 23 patients, all dose levels, at least possibly related
[2] = 23 patients, all dose levels, at least possibly related, listed as Perifosine

For `CCCCCCCCCCCCCCCCCCOP(=O)([O-])OC1CC[N+](C)(C)CC1` [perifosine, 1,1-Dimethyl-4-[[(octadecyloxy)hydroxyphosphinyl]oxy]-piperidinium inner salt], the MTD (5 dose levels, 25 to 125 mg/m2/day) was “not defined”, the “ALT, Any Grade, %” value [1] was 39.13% and the “ALT, Any Grade, No.” value [1] was 9. The “ALT, Grade 3 or 4, %” value [1] was 0.00%, the “ALT, Grade 3 or 4, No.” value [1] was 0 and the “AST, Any Grade, %” value [1] was 26.09%. For the same molecule, the “AST, Any Grade, No.” value [1] was 6, the “AST, Grade 3 or 4, %” value [1] was 0.00% and the “Decreased hemoglobin, Grade 3 or 4, %” value [1] was 0.00%. The “Decreased hemoglobin, Grade 3 or 4, No.” value [1] was 0, the “Decreased leukocytes, Any Grade, %” value [1] was 47.83% and the “Decreased leukocytes, Any Grade, No.” value [1] was 11. The “Decreased leukocytes, Grade 3 or 4, %” value [1] was 0.00%, the “Decreased leukocytes, Grade 3 or 4, No.” value [1] was 0 and the “Decreased neutrophils (neutropenia), Grade 3 or 4, %” value [1] was 8.7%. For the same molecule, the “Decreased neutrophils, Any Grade, %” value [1] was 26.09%, the “Decreased neutrophils, Any Grade, No.” value [1] was 6 and the “Decreased neutrophils, Grade 3 or 4, No.” value [1] was 2. For the same molecule, the “Decreased platelets, Any Grade, %” value [1] was 21.74%, the “Decreased platelets, Any Grade, No.” value [1] was 5 and the “Decreased platelets, Grade 3 or 4, %” value [1] was 0.00%. The “Decreased platelets, Grade 3 or 4, No.” value [1] was 0, the “Diarrhea, Any Grade, %” value [1] was 43.48% and the “Diarrhea, Any Grade, No.” value [1] was 10. The “Diarrhea, Grade 3 or 4, %” value [1] was 0.00%, the “Diarrhea, Grade 3 or 4, No.” value [1] was 0 and the “Fatigue, Any Grade, %” value [1] was 65.22%. The “Fatigue, Any Grade, No.” value [1] was 15, the “Fatigue, Grade 3 or 4, %” value [1] was 4.35% and the “Fatigue, Grade 3 or 4, No.” value [1] was 1. The “Fever, Any Grade, %” value [1] was 21.74%, the “Fever, Any Grade, No.” value [1] was 5 and the “Fever, Grade 3 or 4, %” value [1] was 4.35%. For the same molecule, the “Fever, Grade 3 or 4, No.” value [1] was 1, the “Flatulence, Any Grade, %” value [1] was 13.04% and the “Flatulence, Any Grade, No.” value [1] was 3. The “Flatulence, Grade 3 or 4, %” value [1] was 0.00%, the “Flatulence, Grade 3 or 4, No.” value [1] was 0 and the “Hyperglycemia, Any Grade, %” value [1] was 60.87%. The “Hyperglycemia, Any Grade, No.” value [1] was 14, the “Hyperglycemia, Grade 3 or 4, %” value [1] was 4.35% and the “Hyperglycemia, Grade 3 or 4, No.” value [1] was 1. The “Hyperuricemia, Any Grade, %” value [1] was 4.35%, the “Hyperuricemia, Any Grade, No.” value [1] was 1 and the “Hyperuricemia, Grade 3 or 4, %” value [1] was 4.35%. For the same molecule, the “Hyperuricemia, Grade 3 or 4, No.” value [1] was 1, the “Hypocalcemia, Any Grade, %” value [1] was 21.74% and the “Hypocalcemia, Any Grade, No.” value [1] was 5. The “Hypocalcemia, Grade 3 or 4, %” value [1] was 0.00%, the “Hypocalcemia, Grade 3 or 4, No.” value [1] was 0 and the “Hypokalemia, Any Grade, %” value [1] was 21.74%. The “Hypokalemia, Any Grade, No.” value [1] was 5, the “Hypokalemia, Grade 3 or 4, %” value [1] was 0.00% and the “Hypokalemia, Grade 3 or 4, No.” value [1] was 0. For the same molecule, the “Hypomagnesemia, Any Grade, %” value [1] was 13.04%, the “Hypomagnesemia, Any Grade, No.” value [1] was 3 and the “Hypomagnesemia, Grade 3 or 4, %” value [1] was 0.00%. The “Hypomagnesemia, Grade 3 or 4, No.” value [1] was 0, the “Hyponatremia, Any Grade, %” value [1] was 21.74% and the “Hyponatremia, Any Grade, No.” value [1] was 5. For the same molecule, the “Hyponatremia, Grade 3 or 4, %” value [1] was 0.00%, the “Hyponatremia, Grade 3 or 4, No.” value [1] was 0 and the “Hypophosphatemia, Any Grade, %” value [1] was 13.04%. The “Hypophosphatemia, Any Grade, No.” value [1] was 3, the “Hypophosphatemia, Grade 3 or 4, %” value [1] was 0.00% and the “Hypophosphatemia, Grade 3 or 4, No.” value [1] was 0. The “Infection URI, Any Grade, %” value [1] was 17.39%, the “Infection URI, Any Grade, No.” value [1] was 4 and the “Infection URI, Grade 3 or 4, %” value [1] was 0.00%. The “Infection URI, Grade 3 or 4, No.” value [1] was 0, the “Infection—catheter related, Any Grade, %” value [1] was 4.35% and the “Infection—catheter related, Any Grade, No.” value [1] was 1. For the same molecule, the “Infection—catheter related, Grade 3 or 4, %” value [1] was 4.35%, the “Infection—catheter related, Grade 3 or 4, No.” value [1] was 1 and the “Lymphopenia, Any Grade, %” value [1] was 17.39%. For the same molecule, the “Lymphopenia, Any Grade, No.” value [1] was 4, the “Lymphopenia, Grade 3 or 4, %” value [1] was 0.00% and the “Lymphopenia, Grade 3 or 4, No.” value [1] was 0. The “Nausea, Any Grade, %” value [1] was 65.22%, the “Nausea, Any Grade, No.” value [1] was 15 and the “Nausea, Grade 3 or 4, %” value [1] was 0.00%. For the same molecule, the “Nausea, Grade 3 or 4, No.” value [1] was 0, the “Pain—abdomen NOS, Any Grade, %” value [1] was 21.74% and the “Pain—abdomen NOS, Any Grade, No.” value [1] was 5. For the same molecule, the “Pain—abdomen NOS, Grade 3 or 4, %” value [1] was 0.00%, the “Pain—abdomen NOS, Grade 3 or 4, No.” value [1] was 0 and the “Pain—stomach, Any Grade, %” value [1] was 13.04%. The “Pain—stomach, Any Grade, No.” value [1] was 3, the “Pain—stomach, Grade 3 or 4, %” value [1] was 0.00% and the “Pain—stomach, Grade 3 or 4, No.” value [1] was 0. The “Vomiting, Any Grade, %” value [1] was 56.52%, the “Vomiting, Any Grade, No.” value [1] was 13 and the “Vomiting, Grade 3 or 4, %” value [1] was 0.00%. The “Vomiting, Grade 3 or 4, No.” value [1] was 0, the “Decreased leukocytes, Any Grade, %” value [2] was 47.8% and the “Fatigue, Any Grade, %” value [2] was 65.2%. For the same molecule, the “Hyperglycemia, Any Grade, %” value [2] was 60.9%, the “Nausea, Any Grade, %” value [2] was 65.2% and the “Vomiting, Any Grade, %” value [2] was 56.5%. For the same molecule, the “Number of DLTs” value (grade 4 hyperuricemia at dose level 4, 23 patients, 5 dose levels) was “one”, the “AST, Grade 3 or 4, No.” value (human, in vivo) was 0 and the “Anorexia, Any Grade, %” value (human, in vivo) was 30.43%. The “Anorexia, Any Grade, No.” value (human, in vivo) was 7, the “Anorexia, Grade 3 or 4, %” value (human, in vivo) was 0.00% and the “Anorexia, Grade 3 or 4, No.” value (human, in vivo) was 0. The “Constipation, Any Grade, %” value (human, in vivo) was 13.04%, the “Constipation, Any Grade, No.” value (human, in vivo) was 3 and the “Constipation, Grade 3 or 4, %” value (human, in vivo) was 0.00%. The “Constipation, Grade 3 or 4, No.” value (human, in vivo) was 0, the “Decreased hemoglobin, Any Grade, %” value (human, in vivo) was 43.48% and the “Decreased hemoglobin, Any Grade, No.” value (human, in vivo) was 10.
